Where “and” joins values, the source holds several entries; their conditions need not be identical. Equal values may be shown once. Read-outs that look alike come from different tables or passages of the source.
Experiments:
Format in all cases: binding
SARS-CoV-2 NSP3 Mac1 [1] = target: T1, SARS-CoV-2 NSP3 Mac1 (Severe acute respiratory syndrome coronavirus 2, UniProt P0DTD1); set-up: contains a conserved macrodomain enzyme (Mac1); conditions: for Spearman est (compound concentration vs apparent Tm): DSF dose responsiveness, 1 µM nsp3 mac1, adj p given
How it was run: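 Differential scanning fluorimetry using 5 µM Fluorescent Yellow dye in place of SYPRO Orange. Compounds run in triplicate at seven two-fold dilutions from 1,000 or 100 μM, with ΔTma taken against a DMSO control in the same plate region. Dose-response significance assessed by Spearman's coefficient between concentration and ΔTma.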

SARS-CoV-2 NSP3 Mac1 [2] = target: T1, SARS-CoV-2 NSP3 Mac1; conditions: for Refined occupancy: ligand occupancy after refinement (phenix.refine); for binding to Mac1 in crystal soaking, result in words: soaks at 10 to 20 mM
SARS-CoV-2 NSP3 Mac1 [3] = target: T1, SARS-CoV-2 NSP3 Mac1; test: biochemical; conditions: for Ki: Ki estimation from HTRF-derived IC50, Cheng-Prusoff, peptide 400nM, Kd 2.68µM
[4] = PanDDA event map, 1 minus background density correction, crystal soaking of Mac1
[5] = true hit = binding in crystallographic soaking or the HTRF-based binding assay
[6] = maximal thermal upshift vs DMSO control
[7] = PanDDA 1-BDC (background density correction) of the event, crystal soak 100 mM, PanDDA run dmso_34
[8] = crystal soak, compound concentration 100 mM, PanDDA run dmso_34, series docking_lead-like_1
[9] = ligand modeled in the crystal structure, crystal soak 100 mM, PanDDA run dmso_34
[10] = overall hit flag: binding in crystallographic soaking or the HTRF-based binding assay
[11] = HTRF ADPr-peptide displacement from SARS-CoV-2 Mac1, read-out: IC50
[12] = HTRF, several values in a cell are separate determinations, read-out: IC50
[13] = PanDDA event map background density correction, crystal soak, Compound_concentration 100 mM, PanDDA run dmso_34
[14] = crystal soak, Compound_concentration 100 mM, Echo dispense 40 nl, PanDDA run dmso_34
[15] = ligand modeled in crystal structure, crystal soak, Compound_concentration 100 mM, PanDDA run dmso_34
[16] = ligand modeled in structure, crystal soak, Compound_concentration 100 mM
[17] = PanDDA 1-BDC value of the event, crystal soak, compound concentration 100 mM, per dataset
[18] = crystal soak, compound concentration 100 mM, per dataset
[19] = ligand modeled in the crystal structure, crystal soak, compound concentration 100 mM, per dataset
[20] = ligand modeled from this dataset, compound concentration 100 mM, Echo dispense volume 40 or 80 nl
[21] = IC50, HTRF ADPr-peptide displacement from SARS-CoV-2 Mac1

Compound	Spearman est (compound concentration vs apparent Tm) (SARS-CoV-2 NSP3 Mac1 [1])	DSF max dTma (SARS-CoV-2 NSP3 Mac1 [1]; maximal thermal upshift)	Refined occupancy (SARS-CoV-2 NSP3 Mac1 [2]; crystal soaking of Mac1)	HIT* (SARS-CoV-2 NSP3 Mac1 [2]; [5])	Ki (SARS-CoV-2 NSP3 Mac1 [3]; read-out: Ki***)	DSF max dTma (SARS-CoV-2 NSP3 Mac1 [1]; [6])	1-BDC (SARS-CoV-2 NSP3 Mac1 [2]; [4])	HIT* (SARS-CoV-2 NSP3 Mac1 [2]; [10])	IC50 (SARS-CoV-2 NSP3 Mac1 [3]; [11])	IC50 (SARS-CoV-2 NSP3 Mac1 [3]; [12])	1-BDC (SARS-CoV-2 NSP3 Mac1 [2]; [17])	PanDDA hit? (SARS-CoV-2 NSP3 Mac1 [2]; [18])	other results
Cc1c[nH]c2ncc(C(=O)N(C)c3nnn[nH]3)cc12 [R7335]	0.73	1.16 ˚C	40	Y	36.7 µM								1-BDC (SARS-CoV-2 NSP3 Mac1 [2]; PanDDA event map, 1-BDC of the hit dataset, crystal soak, compound concentration 100 mM): 0.26; 1-BDC (PanDDA) (SARS-CoV-2 NSP3 Mac1 [2]; [4]): 0.2; Modeled? (SARS-CoV-2 NSP3 Mac1 [2]; ligand modeled from this dataset, compound concentration 100 mM): TRUE; IC50 (SARS-CoV-2 NSP3 Mac1 [3]; HTRF, read-out: IC50): 42.2 µM
CCc1c[nH]c2ncnc(N3CCCC(S(C)(=O)=O)C3)c12 (centres unmarked) [Z1027]	0.96		34		110 µM	1.03 °C	0.17	Y	126 µM	126 µM			1-BDC (SARS-CoV-2 NSP3 Mac1 [2]; [7]): 0.17; PanDDA hit? (SARS-CoV-2 NSP3 Mac1 [2]; [8]): TRUE; Modeled? (SARS-CoV-2 NSP3 Mac1 [2]; [9]): TRUE
Cc1[nH]c2ncnc(N3CCOC(CC(F)(F)F)C3)c2c1C (centres unmarked) [Z2051]	0.51				119 µM	0.51 °C		Y	137 µM	137 µM			binding to Mac1 in crystal soaking, result in words (SARS-CoV-2 NSP3 Mac1 [2]): not confirmed by X-ray crystallography
CCc1c[nH]c2ncnc(N3CCC[C@H](C(N)=O)C3)c12 [Z3271]	0.97				177 µM	1.77 °C		Y	204 µM	204 µM			binding to Mac1 in crystal soaking, result in words (SARS-CoV-2 NSP3 Mac1 [2]): not confirmed by X-ray crystallography
O=S1(=O)CCC2(CCCN(c3ncnc4[nH]ccc34)C2)C1 (centres unmarked) [Z4305]	0.77		76		148 µM	1.26 °C	0.38	Y	170 µM	170 µM			1-BDC (SARS-CoV-2 NSP3 Mac1 [2]; [7]): 0.38; PanDDA hit? (SARS-CoV-2 NSP3 Mac1 [2]; [8]): TRUE; Modeled? (SARS-CoV-2 NSP3 Mac1 [2]; [9]): TRUE
CCc1c[nH]c2ncnc(N3CCCC(Cc4nc(C)no4)C3)c12 (centres unmarked) [Z5531]	0.68		40		129 µM	0.6 °C	0.2	Y	148 µM	148 µM			1-BDC (SARS-CoV-2 NSP3 Mac1 [2]; [7]): 0.2; PanDDA hit? (SARS-CoV-2 NSP3 Mac1 [2]; [8]): TRUE; Modeled? (SARS-CoV-2 NSP3 Mac1 [2]; [9]): TRUE
CC(O)CNc1cc(N2CC3(CCC3)C(F)(C(=O)O)C2)ncn1 (centres unmarked) [Z5722]	0.59		36		404 µM	0.96 °C	0.18	Y	464 µM and 460 µM				1-BDC (SARS-CoV-2 NSP3 Mac1 [2]; [13]): 0.18; PanDDA hit? (SARS-CoV-2 NSP3 Mac1 [2]; [14]): TRUE; Modeled? (SARS-CoV-2 NSP3 Mac1 [2]; [15]): TRUE
C[C@@H]1CN(c2ncnc3[nH]c4ccccc4c23)C[C@@H](CO)O1 [Z6923]	0.28		20		362 µM	0.46 °C	0.1	Y	416 µM and ≤ 90 µM	416 µM			Modeled? (SARS-CoV-2 NSP3 Mac1 [2]; [16]): TRUE
O=c1[nH]nc(C2CCCN(c3ncnc4[nH]ccc34)C2)o1 (centres unmarked) [Z7655]	0.22		18		243 µM	0.6 °C	0.09	Y	279 µM	279 µM			1-BDC (SARS-CoV-2 NSP3 Mac1 [2]; [7]): 0.09; PanDDA hit? (SARS-CoV-2 NSP3 Mac1 [2]; [8]): TRUE; Modeled? (SARS-CoV-2 NSP3 Mac1 [2]; [9]): TRUE
OC[C@H]1CCCN(c2ncnc3[nH]c4cc(F)ccc4c23)C1 [Z7873]	0.95		12		78.6 µM	1.5 °C	0.06	Y	≤ 90 µM and 90 µM	90.3 µM			1-BDC (SARS-CoV-2 NSP3 Mac1 [2]; [13]): 0.06; PanDDA hit? (SARS-CoV-2 NSP3 Mac1 [2]; [14]): TRUE; Modeled? (SARS-CoV-2 NSP3 Mac1 [2]; [15]): TRUE
O=C(OCCN1CCOC1=O)c1ncnc2[nH]ccc12 [Z8207]	0.99	2.51 ˚C	76	Y	52.3 µM		0.38		60 µM				IC50 (SARS-CoV-2 NSP3 Mac1 [3]; HTRF, read-out: IC50): 60.1 µM
CNC(=O)Nc1ccc(C(=O)NC2c3ccccc3CC2C(=O)O)cc1 (centres unmarked) [Z8515]	0.98		18		9 µM	3.71 °C	0.09	Y	7.9 µM	10.3 µM	0.09	TRUE	Modeled? (SARS-CoV-2 NSP3 Mac1 [2]; [19]): TRUE
COC(=O)Nc1ccc(C(=O)NC2c3ccccc3CC2C(=O)O)cc1 (centres unmarked) [Z8531]	0.72		8			0.6 °C	0.04	Y	> 250 µM		0.04	TRUE	Modeled? (SARS-CoV-2 NSP3 Mac1 [2]; [19]): TRUE
O=C(NC1c2cccc(O)c2CC1C(=O)O)c1ccc(Nn2ccnc2)cc1 (centres unmarked) [Z8539_0011]	0.18	1.23 ˚C	70	Y	16.5 µM		0.35		19 µM		0.25	TRUE	Modeled? (SARS-CoV-2 NSP3 Mac1 [2]; [20]): TRUE
O=C(Nc1ccccc1)Nc1ccc(C(=O)NC2c3cccc(O)c3CC2C(=O)O)cc1 (centres unmarked) [Z8539_0023]	0.81	9.9 ˚C	34	Y			0.17				0.17	TRUE	thermal upshift (SARS-CoV-2 NSP3 Mac1 [1]; DSF): 9 °C; Modeled? (SARS-CoV-2 NSP3 Mac1 [2]; [19]): TRUE; IC50 (SARS-CoV-2 NSP3 Mac1 [3]; [21]): 0.5 µM; Ki (SARS-CoV-2 NSP3 Mac1 [3]; Ki***): 0.4 µM
O=C(Nc1ccc(C(=O)NCc2c(C(=O)O)sc3ccccc23)cc1)NC1CC1 [Z8539_0025]	0.17	0.91 ˚C	48	Y	17.8 µM		0.24		20 µM		0.24	TRUE	Modeled? (SARS-CoV-2 NSP3 Mac1 [2]; [20]): TRUE; IC50 (SARS-CoV-2 NSP3 Mac1 [3]; HTRF, read-out: IC50): 20.4 µM
O=C(Nc1ccc(C(=O)NCc2c(C(=O)O)oc3ccccc23)cc1)NC1CC1 [Z8539_0026]	0.37	3.52 ˚C	66	Y	72.9 µM		0.33		84 µM		0.3	TRUE	Modeled? (SARS-CoV-2 NSP3 Mac1 [2]; [20]): TRUE; IC50 (SARS-CoV-2 NSP3 Mac1 [3]; HTRF, read-out: IC50): 83.8 µM
O=C(Nc1ccc(C(=O)NCc2c(C(=O)O)[nH]c3ccccc23)cc1)NC1CC1 [Z8539_0027]	0.7	6.22 ˚C	46	Y			0.23				0.29	TRUE	Modeled? (SARS-CoV-2 NSP3 Mac1 [2]; [20]): TRUE; IC50 (SARS-CoV-2 NSP3 Mac1 [3]; [21]): 7.6 µM; Ki (SARS-CoV-2 NSP3 Mac1 [3]; Ki***): 6.6 µM
NC(=O)Nc1ccc(C(=O)NC2c3cccc(O)c3CC2C(=O)O)cc1 (centres unmarked) [Z8539_0041]	0.6	6 ˚C	48	Y	1.1 µM		0.24				0.24	TRUE	Modeled? (SARS-CoV-2 NSP3 Mac1 [2]; [19]): TRUE; binding to Mac1 in the HTRF assay, result in words (SARS-CoV-2 NSP3 Mac1 [3]): did not substantially change binding affinity; IC50 (SARS-CoV-2 NSP3 Mac1 [3]; HTRF, read-out: IC50): 1.3 µM
CC(C)NC(=O)Nc1ccc(C(=O)NC2c3cccc(O)c3CC2C(=O)O)cc1 (centres unmarked) [Z8539_0046]	0.49	6.41 ˚C	42	Y	0.7 µM		0.21				0.23	TRUE	Modeled? (SARS-CoV-2 NSP3 Mac1 [2]; [20]): TRUE; binding to Mac1 in the HTRF assay, result in words (SARS-CoV-2 NSP3 Mac1 [3]): did not substantially change binding affinity; IC50 (SARS-CoV-2 NSP3 Mac1 [3]; HTRF, read-out: IC50): 0.8 µM
O=C(O)CC1CN(c2ncnc3[nH]ccc23)CCO1 (centres unmarked) [Z9572]	0.62		18		197 µM	0.66 °C	0.09	Y	227 µM and 234 µM	227 µM			Modeled? (SARS-CoV-2 NSP3 Mac1 [2]; [16]): TRUE

From article PMC9926234, “Iterative computational design and crystallographic screening identifies potent inhibitors targeting the Nsp3 macrodomain of SARS-CoV-2” (Proceedings of the National Academy of Sciences of the …, 2023)
